Experiment in all cases: inhibition of tumour cell growth, NCI panel, 48 h
Assay [1] has as its system NCI/ADR-RES ovarian.
In assay [2] the test system is NCI-H23 lung.
In assay [3] the test system is DU-145 prostate.
Assay [4] concerns RPMI-8226 leukemia.
Assay [5] has as its system A498 renal.
In assay [6] the test system is NCI-H226 lung.
The test system of assay [7] is SN12C renal.
Assay [8] deals with MDA-MB-435.
The subject of assay [9] is 786-0 renal.
The subject of assay [10] is M14 melanoma.

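Dose response: 5 concentrations. Exposure: 48 h. Format: 96-well plates. Endpoint: linear interpolation; highest concentration if not reached. GI50 is the concentration that inhibits growth by half. TGI: total growth inhibition.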

Consider `CC(C)(C)c1ccc(C2CC(=O)C3=C(C2)Nc2ccccc2N(C(=O)c2ccccc2Cl)C3c2ccc(F)cc2)cc1` (centres undefined), for which the GI50 in assay [1] is > 100 µM; in [2], > 100 µM; in [3], > 100 µM; in assay [4] it was 4.14 µM; in assay [5], 1.3 µM; in assay [6] it was > 100 µM. Besides, the GI50 in assay [7], in assay [8], in assay [9] and in assay [10] was > 100 µM in each case. In addition, the TGI in assay [1], in assay [2], in [3], in assay [4], in assay [5] and in assay [6] was > 100 µM throughout. The TGI in assay [7], in [8], in assay [9] and in assay [10] was > 100 µM each time.
For the molecule `COc1ccc(Nc2ncnc3ccc(-c4cncc(NS(C)(=O)=O)c4)cc23)cc1Cl`, the GI50 in assay [1] is 21.4 µM; in [2], 2.66 µM; in assay [3], 3.78 µM; in assay [4], 2.11 µM; in assay [5], 1.8 µM; in assay [6], 2.69 µM. Further, the GI50 in [7] was 3.09 µM; in assay [8], 3.19 µM; in [9], 2.99 µM; in assay [10] it was 2.81 µM. Besides, the TGI in [1] amounted to 81.5 µM; in assay [2] it was 15 µM; in assay [3] it was 15.2 µM; in [4], 4.9 µM; in [5], 4.44 µM; in assay [6], 18.1 µM. Besides, the TGI was 18.7 µM in assay [7], 15.3 µM in [8], 13 µM in [9] and 13.6 µM in assay [10].
As to `CC(C)[P+](c1ccccc1)(c1ccccc1)c1ccccc1`, the GI50 is > 100 µM in assay [1]; 7.29 µM in [3]; 1.72 µM in assay [4]; 9.22 µM in assay [5]; 5.69 µM in assay [6]; 11.5 µM in assay [7]. The GI50 in [8] is 2.65 µM; in assay [9] it was 32.5 µM; in assay [10], 11.2 µM. Further, the TGI is > 100 µM in assay [1]; > 100 µM in assay [3]; 23.6 µM in assay [4]; 74.9 µM in assay [5]; > 100 µM in assay [6]; > 100 µM in assay [7]. The TGI in assay [8] was 25.3 µM; in assay [9], > 100 µM; in assay [10], > 100 µM.
On to `Cc1c(Nc2nccc3cc(CN4CC[C@@H](O)C4)cnc23)cccc1-c1cccc(-c2nc3cc(CN4CC[C@@H](C(=O)O)C4)cc(C#N)c3o2)c1C`, for which the GI50 in [1] is 14.8 µM; in assay [2], 12 µM; in assay [3] it was > 100 µM; in assay [4] it was 2.26 µM; in assay [5] it was > 100 µM; in assay [6], > 100 µM. In addition, the GI50 is 20.1 µM in assay [7], 15.3 µM in assay [8], 4.5 µM in assay [9] and 5.82 µM in assay [10]. In addition, the TGI in assay [1] is > 100 µM; in assay [2], 27.1 µM; in assay [3], > 100 µM; in assay [4], 26.5 µM; in [5] it was > 100 µM; in [6] it was > 100 µM. Besides, the TGI in [7] is > 100 µM; in assay [8], 35.1 µM; in [9] it was > 100 µM; in assay [10], 20.3 µM.
As to `CN1CCN(C(=O)c2ccc(NC(=O)Nc3ccc(-c4nc(N5CCOCC5)c5cccn5n4)cc3)cc2)CC1`, the GI50 is 8.06 µM in [1]; 0.0711 µM in assay [2]; 0.0348 µM in assay [3]; 0.287 µM in assay [4]; 0.0172 µM in assay [5]; 0.0306 µM in assay [6]. Moreover, the GI50 is 0.0331 µM in [7], 0.032 µM in assay [8], 0.0632 µM in assay [9] and 0.0966 µM in assay [10]. Moreover, the TGI in assay [1] was > 81.6 µM; in assay [2], 19 µM; in assay [3], 12 µM; in assay [4], 2.02 µM; in [5], 0.0664 µM; in assay [6], 0.345 µM. The TGI in assay [7] is 11.8 µM; in [8], 0.41 µM; in assay [9], 1.11 µM; in assay [10], 10.3 µM.
As for `NC1=NC(SCc2ccccc2CCl)c2ncn(Cc3ccccc3CCl)c2N1` (centres undefined), the GI50 was 1.81 µM in [1]; 1.61 µM in assay [2]; 1.35 µM in assay [3]; 8.51 µM in assay [5]; 1.9 µM in assay [6]; 2.76 µM in assay [7]. Moreover, the GI50 was 1.53 µM in [8] and 1.85 µM in assay [9]. For the same molecule, the TGI in [1] came to 4.3 µM; in assay [2], 3.45 µM; in [3], 2.7 µM; in assay [5], 25.3 µM; in assay [6] it was 4.7 µM; in assay [7], 9.85 µM. The results for the TGI in [8] and in assay [9] were 3.28 µM and 3.97 µM, respectively.
For `CCN1CCN(c2cc(C(=O)Nc3cccc(Nc4ccc5c(OC)cccc5n4)c3)cc(C(F)(F)F)c2)CC1`, the GI50 in [1] was 1.29 µM; in assay [2], 3.41 µM; in assay [3] it was 1.88 µM; in assay [4], 1.2 µM; in assay [5], 4.94 µM; in assay [6], 2.85 µM. For the same molecule, the GI50 in assay [7] was 1.4 µM; in assay [8] it was 1.16 µM; in assay [9] it was 3.73 µM; in [10], 0.668 µM. In addition, the TGI was 6.69 µM in [1]; 8.12 µM in assay [2]; 7.33 µM in assay [3]; 5.32 µM in [4]; 10.5 µM in assay [5]; 25.4 µM in [6]. For the same molecule, the TGI stood at 5.57 µM in [7], 4.93 µM in assay [8], 7.84 µM in assay [9] and 1.65 µM in [10].
Take `Nc1c(C(=O)c2cccc(C(O)CO)c2)cnn1-c1ccc(F)cc1` (centres undefined): the GI50 in [1], in [2], in assay [3], in [4], in assay [5] and in [6] was > 25 µM throughout. In addition, the GI50 in assay [7], in assay [8], in assay [9] and in [10] was > 25 µM in each case. For the same molecule, the TGI in assay [1], in [2], in assay [3], in assay [4], in assay [5] and in assay [6] was > 25 µM throughout. Moreover, the TGI in [7], in assay [8], in assay [9] and in [10] was > 25 µM throughout.
As for `COC(=O)CC1(O)C=CC(=O)C=C1`, the TGI came out at 32.4 µM in assay [1]; 10.9 µM in assay [2]; 18.6 µM in assay [3]; 31.4 µM in assay [4]; 15.9 µM in [5]; 26.8 µM in [6]. The TGI was found to be 37.6 µM in assay [7], 21.8 µM in assay [8], 6.89 µM in assay [9] and 16.6 µM in assay [10].
`COC1=C(OC)C(=O)C(C/C=C(\C)CC/C=C(\C)CC/C=C(\C)CC/C=C(\C)CC/C=C(\C)CC/C=C(\C)CC/C=C(\C)CC/C=C(\C)CC/C=C(\C)CCC=C(C)C)=C(C)C1=O`: the GI50 in [1], in assay [2], in assay [3], in assay [4], in assay [6] and in assay [7] was > 100 µM in each case. For the same molecule, the GI50 in assay [8], in [9] and in [10] was > 100 µM each time. The TGI in [1], in assay [2], in [3], in assay [4], in assay [6] and in assay [7] was > 100 µM in each case. Besides, the TGI in assay [8], in assay [9] and in [10] was > 100 µM in each case.
With `O=C1CC(c2cccc(Cl)c2)Oc2ccccc21` (centres undefined), the TGI in assay [1] is 48.9 µM; in assay [2], 24.3 µM; in assay [3], 38.2 µM; in assay [4] it was 9.83 µM; in assay [5], 46.3 µM; in assay [6], 41.3 µM. Moreover, the TGI was 38.1 µM in assay [8], 39.5 µM in [9] and 36 µM in [10].
Consider `CCOC(=O)c1c(-c2ccccc2)[n+](=O)c2cc(F)c(F)cc2n1[O-]`, for which the GI50 was 0.924 µM in [1]; 1.42 µM in assay [2]; 1.78 µM in assay [3]; 1.02 µM in assay [4]; 5.02 µM in [5]; 2.73 µM in assay [6]. Moreover, the values for the GI50 in assay [8], in [9] and in assay [10] were 1.93 µM, 2.01 µM and 1.11 µM, respectively. Further, the TGI turned out to be 2.66 µM in assay [1]; 3.13 µM in assay [2]; 3.55 µM in [3]; 3.98 µM in assay [4]; 17 µM in assay [5]; 6.92 µM in assay [6]. In addition, the TGI worked out at 3.6 µM in assay [8], 3.64 µM in [9] and 2.34 µM in assay [10].
In the case of `CC(C)=Cc1cc(C)c2ccc(C)c3c2c1C(C)=C(O)C3=O`, the GI50 in assay [1] was 15.7 µM; in assay [3] it was 36.3 µM; in assay [4] it was 4.38 µM; in assay [6] it was 30.8 µM; in assay [7], 24.3 µM; in assay [8] it was 27.5 µM. The GI50 is 35.9 µM in assay [9] and 20.1 µM in [10]. The TGI in [1] is 51.3 µM; in assay [3], > 100 µM; in assay [4] it was 24.7 µM; in assay [6], 81 µM; in assay [7] it was 61.6 µM; in [8], 73.7 µM. Also, the TGI in assay [9] is > 100 µM; in assay [10], 45.7 µM.
With `CC1CCCC(C#N)(NOC2=NCCN2)C1` (centres undefined), the GI50 in [1] was > 100 µM; in assay [2], 35.3 µM; in assay [3], 24.1 µM; in [4], 38 µM; in assay [6], 17.2 µM; in assay [7], 26.5 µM. Also, the GI50 is 35.4 µM in assay [8], > 100 µM in [9] and 84.1 µM in assay [10]. Further, the TGI was > 100 µM in [1]; > 100 µM in assay [2]; > 100 µM in assay [3]; > 100 µM in assay [4]; 37 µM in [6]; > 100 µM in assay [7]. For the same molecule, the TGI in assay [8], in [9] and in assay [10] was > 100 µM throughout.
As to `N#CC1=C(N)NC(N2CCOCC2)=NC12Nc1ccccc1O2` (centres undefined), the GI50 was 34.2 µM in [1]; 29.5 µM in [2]; 59.3 µM in assay [3]; 15.4 µM in assay [4]; 98.7 µM in assay [6]; 96.4 µM in assay [7]. For the same molecule, the GI50 in assay [8] was 23.5 µM; in assay [9], 21.5 µM; in assay [10], 39.6 µM. In addition, the TGI in [1] is > 100 µM; in assay [2], > 100 µM; in assay [3] it was > 100 µM; in assay [4] it was 61.3 µM; in assay [6], > 100 µM; in assay [7], > 100 µM. Besides, the TGI is 70.2 µM in assay [8], 60.1 µM in assay [9] and > 100 µM in assay [10].
For `C=CC1C(CC2OC(CO)C(O)C(O)C2O)OC=C2C(=O)OCCC21O` (centres undefined), the GI50 in assay [1] is 24 µM; in assay [2] it was 24.9 µM; in assay [3], 13.8 µM; in [4], 2.32 µM; in assay [6], 20.9 µM; in [7], 20.8 µM. The GI50 in [8] is 13.7 µM; in [9], 2.67 µM; in assay [10] it was 22.3 µM. Moreover, the TGI in assay [1] was > 100 µM; in [2] it was 61.9 µM; in assay [3] it was 62.6 µM; in [4] it was 8.43 µM; in [6], 76.5 µM; in [7], 75.6 µM. Also, the TGI in [8] is 44.5 µM; in assay [9], 17.5 µM; in [10], 65.7 µM.
